Measurements reported in paper PMC10446491 (Frontiers in Immunology, 2023).

Each substance was assayed on lysis of EA (assay: CH50 test of C5 proteins in 1.5% C5-depleted human sera with EA). Conditions: 1.5% C5-depleted human sera supplemented with C5 protein.
Format: cell-based
Procedure: Recombinant human C5 R885 variants (rhC5 R885C and rhC5 R885H) were prepared in-house ( Supplementary Material ). Their activities on complement activation were examined by the CH50 test using 1.5% C5-depleted human sera supplemented with C5 R885 variants. […] Other procedures and data analysis are described in Section 2.3.
Supplementary Figure 2. Determination of CH50 of the hemolysis by C5 from different sources. Wild type C5 purified from human sera (hC5 compTech) (Complement Technologies), recombinant C5 wild type (rhC5 WT), recombinant C5 variant R885C (rhC5 R885C), and recombinant C5 variant R885H (rhC5 R885H). Various concentrations of protein C5 were added to 1.5% C5-depleted human sera followed by incubation with EA (0.5×) in GVB++ buffer. All data were from 2 plates (duplicate in each plate).
With “rhC5 R885H: Recombinant human C5 variant with single mutation R885H, prepared in-house” the CH50 was 1.1 nM. For “C5 wt: Wild-type human C5, purified from human sera or recombinant (rhC5 wt)”, the CH50 was 0.2 to 0.3 nM. Substance “rhC5 R885C: Recombinant human C5 variant with single mutation R885C, prepared in-house” has a CH50 of 5.2 nM.
